From article PMC3971757 (Journal of Natural Products, 2013)

Tests used:
[1] = target: NA of influenza virus A PR/8/34 (Influenza A virus, UniProt P03468); experiment: biochemical; set-up: species or system influenza A virus H1N1 (A/PR/8/34); conditions: 50% NA inhibitory concentration against influenza virus A PR/8/34
[2] = target: NA of influenza virus A HK/68 (Influenza A virus, UniProt Q91MA2); experiment: biochemical; set-up: species or system influenza A virus H3N2 (A/HongKong/68)
[3] = system: NA of PR/8/34; conditions: read-out: IC50 NA inhibition (PR/8/34); earlier study; cited from earlier work
[4] = system: NA of influenza virus A/PR/8/34 (H1N1); conditions: FL-based NA inhibition assay; cited from earlier work
[5] = system: NA of influenza virus A/Jinan/15/90 (H3N2); conditions: FL-based NA inhibition assay; cited from earlier work
[6] = system: NA of influenza virus B/Jiangsu/10/2003; conditions: FL-based NA inhibition assay; cited from earlier work

Sequence of NA of influenza virus A PR/8/34 (P03468 whole entry, looked up): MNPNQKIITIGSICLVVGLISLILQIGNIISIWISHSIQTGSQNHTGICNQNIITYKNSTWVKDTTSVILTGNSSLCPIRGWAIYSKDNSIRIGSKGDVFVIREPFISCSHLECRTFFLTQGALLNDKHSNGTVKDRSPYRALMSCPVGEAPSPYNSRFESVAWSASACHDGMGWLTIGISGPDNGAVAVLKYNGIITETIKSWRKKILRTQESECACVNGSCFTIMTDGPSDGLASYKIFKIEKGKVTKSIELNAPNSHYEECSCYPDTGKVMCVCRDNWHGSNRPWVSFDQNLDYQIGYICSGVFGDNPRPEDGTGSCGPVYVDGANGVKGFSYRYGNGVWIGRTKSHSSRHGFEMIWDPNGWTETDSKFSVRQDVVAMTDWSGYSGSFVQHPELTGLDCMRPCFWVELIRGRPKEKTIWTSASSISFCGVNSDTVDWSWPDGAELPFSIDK
Sequence of NA of influenza virus A HK/68 (Q91MA2 whole entry, looked up): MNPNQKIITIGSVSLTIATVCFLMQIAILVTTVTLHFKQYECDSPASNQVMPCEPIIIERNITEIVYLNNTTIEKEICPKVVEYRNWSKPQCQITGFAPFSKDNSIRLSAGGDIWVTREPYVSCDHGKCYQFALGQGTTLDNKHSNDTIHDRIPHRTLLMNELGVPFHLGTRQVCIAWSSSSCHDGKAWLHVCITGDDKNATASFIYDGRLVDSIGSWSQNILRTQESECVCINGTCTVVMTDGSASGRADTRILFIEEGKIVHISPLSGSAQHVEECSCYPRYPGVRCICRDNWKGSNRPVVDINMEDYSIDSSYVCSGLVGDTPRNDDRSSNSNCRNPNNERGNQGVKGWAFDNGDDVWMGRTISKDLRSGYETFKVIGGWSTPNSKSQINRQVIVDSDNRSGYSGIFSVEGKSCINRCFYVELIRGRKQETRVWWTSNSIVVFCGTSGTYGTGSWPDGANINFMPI

SMILES | IC50 [1] | IC50 [2] | also measured
C=CCc1ccc(O)c(-c2ccc(O)c(CC=C)c2)c1 [Honokiol, honokiol, reference compound] | 3010 nM | – | –
CC(C)=CCc1cc([C@@H]2CC(=O)c3ccc(O)c(CC=C(C)C)c3O2)ccc1O [Compound 4, glabrol] | 510 nM | 3.06 ± 1.21 µM | –
CC1(C)C=Cc2c(ccc3c2OCC(O)C3)O1 (stereo not drawn) [Compound 2, 3,4-dihydro-8,8-dimethyl-2H,8H-benzo[1,2-b:3,4-b′]dipyran-3-ol] | 6470 ± 2590 nM | 12.4 ± 4.14 µM | –
O=C(CCc1ccccc1)C[C@@H]1C[C@@H](c2ccccc2)c2c(cc(/C=C/c3ccccc3)oc2=O)O1 [Katsumadain A, katsumadain A] | – | – | IC50 [3]: 1050 nM
O=C1C[C@@H](c2ccc(O)cc2)Oc2cc(O[C@@H]3O[C@H](CO)[C@@H](O)[C@H](O)[C@H]3O)cc(O)c21 [Compound 12, prunin] | 3000 ± 460 nM | – | –
CC1(C)C=Cc2c(ccc(-c3coc4cc(O)ccc4c3=O)c2O)O1 [Compound 5, glabrone] | 400 ± 170 nM | 5.34 ± 2.29 µM | –
O=C1C[C@@H](c2ccc(O)cc2)Oc2cc(O)ccc21 [Compound 10, liquiritigenin] | 2070 ± 370 nM | – | –
CC(C)=CCc1c(O)ccc(C(=O)/C=C/c2cc(O)c3c(c2)C=CC(C)(C)O3)c1O [Compound 1, (E)-1-[2,4-dihydroxy-3-(3-methyl-2-butenyl)phenyl]-3-(8-hydroxy-2,2-dimethyl-2H-1-benzopyran-6-yl)-2-propen-1-one] | 250 nM | – | –
O=C1C[C@@H](c2ccc(O[C@@H]3O[C@H](CO)[C@@H](O)[C@H](O)[C@H]3O)cc2)Oc2cc(O)ccc21 [Compound 11, liquiritin] | 83100 ± 17800 nM | – | activity against the NA of influenza virus A/PR/8/34 (H1N1) [4]: weak activity; activity against the NA of influenza virus A/Jinan/15/90 (H3N2) [5]: weak activity; activity against the NA of influenza virus B/Jiangsu/10/2003 [6]: weak activity
COc1ccc(-c2coc3cc(O)ccc3c2=O)cc1 [Compound 3, biochanin B] | 1370 ± 220 nM | – | activity against the NA of influenza virus A/PR/8/34 (H1N1) [4]: weak activity; activity against the NA of influenza virus A/Jinan/15/90 (H3N2) [5]: weak activity; activity against the NA of influenza virus B/Jiangsu/10/2003 [6]: weak activity
CC1(C)C=Cc2c(ccc([C@@H]3COc4c(ccc5c4C=CC(C)(C)O5)C3)c2O)O1 [Compound 6, hispaglabridin B] | 1110 ± 530 nM | 2.85 ± 1.58 µM | –
